Measurements: publication PMC6334293 (Journal of medicinal chemistry, 2018)

Key:
BCL6^BTB LG = conditions: read-out: KD (MST); microscale thermophoresis; cited from earlier work
BCL6^BTB [1] = molecular target: T1, BCL6^BTB (Homo sapiens, UniProt P41182, C67R/C84N/E99V)
Ly1B50 = assay: Growth inhibition; type: cell-based; conditions: Homo sapiens, 48 h, read-out: GI50 BCL6 independent cell Ly1B50
[2] = tested on: BCL6-dependent and BCL6-independent lymphoma cells; assay: Differential cell killing assays, panel statements; type: cell-based, human
SUDHL6 = assay: Growth inhibition; type: cell-based, human
OCI-Ly7 = assay: Growth inhibition; type: cell-based, human
MIZ1 = molecular target: T2, MIZ1 (Homo sapiens, UniProt Q13105); assay: Protein-observed NMR binding to MIZ1 BTB; conditions: Figure S8
T2 sequence (Q13105 1-115): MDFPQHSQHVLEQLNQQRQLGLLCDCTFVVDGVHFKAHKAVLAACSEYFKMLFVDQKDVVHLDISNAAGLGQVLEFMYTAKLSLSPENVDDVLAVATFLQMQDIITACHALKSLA

BCL6^BTB [3] = molecular target: T1, BCL6^BTB; conditions: NMR KD
KAISO = KAISO (Homo sapiens, UniProt Q86T24); conditions: Figure S8
LRF = LRF (Homo sapiens, UniProt O95365); conditions: Figure S8
Chain of LRF (O95365 1-130): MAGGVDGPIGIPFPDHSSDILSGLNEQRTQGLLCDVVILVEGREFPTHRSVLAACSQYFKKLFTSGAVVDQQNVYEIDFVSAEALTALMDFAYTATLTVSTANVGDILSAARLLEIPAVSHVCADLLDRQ

Chain of KAISO (Q86T24 1-122, species assumed): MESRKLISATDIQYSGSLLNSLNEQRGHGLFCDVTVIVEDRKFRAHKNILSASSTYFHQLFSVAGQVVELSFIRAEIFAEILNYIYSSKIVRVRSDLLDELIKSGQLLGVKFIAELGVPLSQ

O=C(O)CC(C(=O)O)N1C(=O)/C(=C2/C(=O)Nc3ccc(Br)cc32)SC1=S (stereo not drawn) [79–6]
Kd (BCL6^BTB LG): 129 µM

CC(C)NC(=O)Cn1ccc2ccc(NC(=S)NCCc3c[nH]c4ccccc34)cc21 [Compound 7b, 2-(6-(3-(2-(1H-Indol-3-yl)ethyl)thioureido)-1H-indol-1-yl)-N-isopropylacetamide]
improvement of 6PA value compared to compound 7a (BCL6^BTB [1]): 3.7 fold

O=C(O)CNC(=O)Cn1ccc2ccc(NC(=S)NCCc3c[nH]c4ccccc34)cc21 [Compound 7i, (2-(6-(3-(2-(1H-Indol-3-yl)ethyl)thioureido)-1H-indol-1-yl)acetyl)glycine]
GI50 (Ly1B50): > 500 µM | effect on all seven lymphoma cell lines ([2]; at the concentration of 500 μM): no effect

COC(=O)Cn1cc(CN2CCN(C)CC2)c2ccc(NC(=S)NCCc3c[nH]c4ccccc34)cc21 [Compound 13, Methyl 2-(6-(3-(2-(1H-indol-3-yl)ethyl)thioureido)-3-((4-methylpiperazin-1-yl)methyl)-1H-indol-1-yl)acetate]
cellular activity, SUDHL6 cells (SUDHL6): weak cellular activity | GI50 (Ly1B50): > 500 µM | 6PA (BCL6^BTB [1]): 363 Hz

CC(C)NC(=O)Cn1cc(CN2CCN(C)CC2)c2ccc(NC(=S)NCCc3c[nH]c4ccccc34)cc21 [Compound 15a, 2-(6-(3-(2-(1H-indol-3-yl)ethyl)thioureido)-3-((4-methylpiperazin-1-yl)methyl)-1H-indol-1-yl)-N-isopropylacetamide]
GI50 (Ly1B50): > 500 µM | effects in the cell killing assays [2]: no effects

CN1CCN(Cc2cn(CC(=O)NCC(=O)O)c3cc(NC(=S)NCCc4c[nH]c5ccccc45)ccc23)CC1 [Compound 15c, (2-(6-(3-(2-(1H-Indol-3-yl)ethyl)thioureido)-3-((4-methylpiperazin-1-yl)methyl)-1H-indol-1-yl)acetyl)glycine]
GI50 (Ly1B50): > 500 µM | effects in the cell killing assays [2]: no effects

CCN(CC)C(=O)Cn1cc(CN2CCN(C)CC2)c2ccc(NC(=S)NCCc3c[nH]c4ccccc34)cc21 [Compound 15d, 2-(6-(3-(2-(1H-Indol-3-yl)ethyl)thioureido)-3-((4-methylpiperazin-1-yl)methyl)-1H-indol-1-yl)-N,N-diethylacetamide]
6PA (BCL6^BTB [1]): 390 Hz

CN1CCN(Cc2cn(CC(=O)N3CCCCC3)c3cc(NC(=S)NCCc4c[nH]c5ccccc45)ccc23)CC1 [Compound 15e, 1-(2-(1H-Indol-3-yl)ethyl)-3-(3-((4-methylpiperazin-1-yl)methyl)-1-(2-oxo-2-(piperidin-1-yl)ethyl)-1H-indol-6-yl)thiourea]
GI50 (Ly1B50): > 500 µM | GI50 ([2]; Homo sapiens, read-out: GI50 for BCL6-dependent lymphoma cells): 33 to 103 µM | effect on all tested BCL6-independent lymphoma cells ([2]; at the concentration of 500 μM): no effect

CN1CCN(Cc2cn(CC(=O)N3CCOCC3)c3cc(NC(=S)NCCc4c[nH]c5ccccc45)ccc23)CC1 [Compound 15f, 1-(2-(1H-Indol-3-yl)ethyl)-3-(3-((4-methylpiperazin-1-yl)methyl)-1-(2-morpholino-2-oxoethyl)-1H-indol-6-yl)thiourea]
cellular activity, OCI-Ly7 cells (OCI-Ly7): weak potency | GI50 (Ly1B50): > 500 µM | activity to other tested BCL6-dependent lymphoma cells ([2]; other than OCI-Ly7): no obvious activity | binding to MIZ1 BTB domain (MIZ1): no interactions | improvement of affinity over 15a (BCL6^BTB [3]): 6 fold | binding to KAISO BTB domain (KAISO): no interactions | binding to LRF BTB domain (LRF): no interactions

CC1CN(C(=O)Cn2cc(CN3CCN(C)CC3)c3ccc(NC(=S)NCCc4c[nH]c5ccccc45)cc32)CCO1 (stereo not drawn) [Compound 15g, 1-(2-(1H-Indol-3-yl)ethyl)-3-(1-(2-(2-methylmorpholino)-2-oxoethyl)-3-((4-methylpiperazin-1-yl)methyl)-1H-indol-6-yl)thiourea]
cellular activity, OCI-Ly7 cells (OCI-Ly7): only showed activity | GI50 (Ly1B50): > 500 µM
